Laboratory results as given in patent US20260176285A1, “SALT OF DIOXANE QUINOLINE COMPOUND, CRYSTAL FORM THEREOF, PREPARATION METHODS THEREFOR AND USES THEREOF” (Beijing Scitech-MQ Pharmaceuticals Limited, priority 2022, published 2026).

Assays:
[1] = Equilibrium solubility in water; type: physicochemical; details: H2O, room temperature, 24 hours; listed as p-Toluenesulfonate salt crystal form A-II
Method: The sample was centrifuged and filtered, and the filtrate was tested by HPLC.

[2] = Long-term stability study; type: physicochemical
Method: p-Toluenesulfonate salt crystal form A-II of the compound of formula (I) was placed at 25° C./60% RH for 6 months to investigate its long-term stability.

AXL = biological target: T1, AXL (Homo sapiens, UniProt P30530); experiment: Kinase activity, Mobility Shift Assay; type: biochemical
T1 construct: purchased Carna 08-107
T1 sequence (P30530 26-894): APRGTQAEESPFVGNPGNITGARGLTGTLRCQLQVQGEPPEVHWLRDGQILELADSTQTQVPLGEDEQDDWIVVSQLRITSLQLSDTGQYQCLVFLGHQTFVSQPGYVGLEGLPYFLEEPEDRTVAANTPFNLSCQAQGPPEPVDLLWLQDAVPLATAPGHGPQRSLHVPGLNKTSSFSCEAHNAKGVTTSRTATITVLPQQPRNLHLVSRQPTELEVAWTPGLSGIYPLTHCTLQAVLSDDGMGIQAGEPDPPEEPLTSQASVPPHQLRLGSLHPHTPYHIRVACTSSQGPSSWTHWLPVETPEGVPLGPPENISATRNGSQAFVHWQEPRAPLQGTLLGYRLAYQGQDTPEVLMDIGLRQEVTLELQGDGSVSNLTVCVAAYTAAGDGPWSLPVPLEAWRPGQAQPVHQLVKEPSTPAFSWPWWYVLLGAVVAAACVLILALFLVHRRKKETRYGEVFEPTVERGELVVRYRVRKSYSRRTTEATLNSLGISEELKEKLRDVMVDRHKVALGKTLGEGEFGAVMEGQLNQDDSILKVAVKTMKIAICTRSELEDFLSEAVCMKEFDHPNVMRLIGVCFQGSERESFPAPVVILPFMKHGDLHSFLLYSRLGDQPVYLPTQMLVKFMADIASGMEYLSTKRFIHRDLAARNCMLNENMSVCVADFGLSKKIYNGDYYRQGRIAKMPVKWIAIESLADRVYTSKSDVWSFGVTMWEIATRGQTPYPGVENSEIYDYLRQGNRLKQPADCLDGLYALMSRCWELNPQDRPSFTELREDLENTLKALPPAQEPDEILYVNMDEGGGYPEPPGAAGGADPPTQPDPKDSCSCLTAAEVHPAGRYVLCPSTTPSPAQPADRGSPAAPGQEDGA
Method: (§1) The assay used the Mobility Shift Assay method. The starting concentration of the test substance was 2.5 μM, which was serially diluted 3-fold to give a total of 10 concentrations, in duplicate.
(§2) The p-toluenesulfonate salt of the free compound prepared in Example 2 was used as the test compound. The starting concentration of the test was 2.5 μM, and the concentration was prepared to 50 times, that is, 125 μM. 158 μl of 100% DMSO was added to the second well of a 96-well plate, and then 2 μl of 10 mM compound solution was added to prepare a 125 μM compound solution. 60 μl of 100% DMSO was added to the other wells. 30 μl of the compound was taken out from the second well and added to the third well, and the 3-fold dilution was made successively to give a total of 10 dilutions. Dilution instrument: automatic microwell pipette (Precision PRC384U)
(§3) • (1) 10 μl was taken out from each well of the 96-well plate with 50-fold compound concentration and transferred to another 96-well plate. 90 μl of kinase buffer was added to prepare a 5-fold compound concentration. • (2) 5 μl was taken out from the 96-well plate with 5-fold compound concentration and transferred to a 384-well reaction plate. For example, the compound in well A1 of the 96-well plate was transferred to wells A1 and A2 of the 384-well plate, the compound in well A2 of the 96-well plate was transferred to wells A3 and A4 of the 384-well plate, and so on.
(§4) Kinase was added to 1× kinase buffer to make a 2.5 times enzyme solution.
(§5) • (1) 5 μl of 5× compound dissolved in 10% DMSO was already in the 384-well reaction plate. • (2) 10 μl of 2.5× enzyme solution was added to the 384-well reaction plate and 10 μl of kinase buffer was added to the negative control wells. • (3) Incubation at room temperature for 10 minutes.
(§6) FAM-labeled peptide and ATP (ATP concentration see Appendix) were added to 1× kinase buffer to form a 2.5× substrate solution.
(§7) 10 μl of 2.5× substrate solution was added to the 384-well reaction plate and centrifuged at 1000 rpm for 1 minute.
(§8) • (1) The plate was incubated at 28° C. for 60 minutes (Biochemical incubator model: SPX-100B-Z). • (2) 30 μl of stop solution was added to the 384-well reaction plate to terminate the reaction and centrifuged at 1000 rpm for 1 minute.
(§9) The data of conversion rate was read on Caliper EZ Reader II.
(§10) • 1) The conversion rate data was copied from Caliper EZ Reader II. • 2) The conversion rate was converted to inhibition rate data, where max refers to the conversion rate of the DMSO control and min refers to the conversion rate of the no enzyme activity control.
(§11) [formula] • 3) Fitting of IC50 values using XLFit excel add-in version 5.4.0.8

KDR(VEGFR2) = biological target: T2, KDR(VEGFR2) (Homo sapiens, UniProt P35968); experiment: Kinase activity, Mobility Shift Assay; type: biochemical
T2 construct: purchased Carna 08-191
T2 sequence (P35968 20-1356): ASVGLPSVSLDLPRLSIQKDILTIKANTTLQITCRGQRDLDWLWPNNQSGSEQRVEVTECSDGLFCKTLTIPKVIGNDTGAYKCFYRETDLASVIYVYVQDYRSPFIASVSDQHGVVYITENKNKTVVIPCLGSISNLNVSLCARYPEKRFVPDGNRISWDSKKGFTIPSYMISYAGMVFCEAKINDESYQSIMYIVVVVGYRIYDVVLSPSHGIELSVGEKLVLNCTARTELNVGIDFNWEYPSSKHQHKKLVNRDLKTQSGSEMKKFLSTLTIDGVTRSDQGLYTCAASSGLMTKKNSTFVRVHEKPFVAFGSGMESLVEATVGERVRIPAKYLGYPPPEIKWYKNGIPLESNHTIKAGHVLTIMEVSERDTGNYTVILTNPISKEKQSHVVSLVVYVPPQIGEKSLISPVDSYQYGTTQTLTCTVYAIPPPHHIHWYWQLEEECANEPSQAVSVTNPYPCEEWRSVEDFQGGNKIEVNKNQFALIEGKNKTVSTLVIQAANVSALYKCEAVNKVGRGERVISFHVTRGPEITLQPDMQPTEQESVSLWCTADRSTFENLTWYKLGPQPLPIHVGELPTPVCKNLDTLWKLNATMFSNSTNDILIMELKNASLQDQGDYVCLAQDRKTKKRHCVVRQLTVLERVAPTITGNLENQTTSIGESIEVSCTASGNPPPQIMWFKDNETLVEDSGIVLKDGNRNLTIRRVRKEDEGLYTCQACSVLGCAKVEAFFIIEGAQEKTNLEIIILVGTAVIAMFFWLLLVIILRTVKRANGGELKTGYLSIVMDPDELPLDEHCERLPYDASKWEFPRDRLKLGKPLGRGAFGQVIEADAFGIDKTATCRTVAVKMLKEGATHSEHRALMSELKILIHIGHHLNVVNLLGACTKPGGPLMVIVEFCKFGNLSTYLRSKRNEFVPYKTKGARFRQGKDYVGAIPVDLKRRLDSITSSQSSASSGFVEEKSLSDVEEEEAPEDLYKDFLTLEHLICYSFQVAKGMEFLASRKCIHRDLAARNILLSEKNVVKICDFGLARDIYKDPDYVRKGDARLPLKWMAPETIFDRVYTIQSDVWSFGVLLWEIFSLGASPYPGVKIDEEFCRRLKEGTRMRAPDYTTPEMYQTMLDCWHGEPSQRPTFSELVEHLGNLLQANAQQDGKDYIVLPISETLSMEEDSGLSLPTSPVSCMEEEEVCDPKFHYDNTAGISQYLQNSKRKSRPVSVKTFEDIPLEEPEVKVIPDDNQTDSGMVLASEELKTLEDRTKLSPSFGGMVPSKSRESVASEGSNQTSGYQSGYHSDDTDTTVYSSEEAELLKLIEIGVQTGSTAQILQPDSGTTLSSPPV
Method: as §1, §2, §3, §4, §5, §6, §7, §8, §9, §10, §11

KIT = biological target: T3, KIT (Homo sapiens, UniProt P10721); experiment: Kinase activity, Mobility Shift Assay; type: biochemical
T3 construct: purchased eurofins 14-559M
T3 sequence (P10721 26-976): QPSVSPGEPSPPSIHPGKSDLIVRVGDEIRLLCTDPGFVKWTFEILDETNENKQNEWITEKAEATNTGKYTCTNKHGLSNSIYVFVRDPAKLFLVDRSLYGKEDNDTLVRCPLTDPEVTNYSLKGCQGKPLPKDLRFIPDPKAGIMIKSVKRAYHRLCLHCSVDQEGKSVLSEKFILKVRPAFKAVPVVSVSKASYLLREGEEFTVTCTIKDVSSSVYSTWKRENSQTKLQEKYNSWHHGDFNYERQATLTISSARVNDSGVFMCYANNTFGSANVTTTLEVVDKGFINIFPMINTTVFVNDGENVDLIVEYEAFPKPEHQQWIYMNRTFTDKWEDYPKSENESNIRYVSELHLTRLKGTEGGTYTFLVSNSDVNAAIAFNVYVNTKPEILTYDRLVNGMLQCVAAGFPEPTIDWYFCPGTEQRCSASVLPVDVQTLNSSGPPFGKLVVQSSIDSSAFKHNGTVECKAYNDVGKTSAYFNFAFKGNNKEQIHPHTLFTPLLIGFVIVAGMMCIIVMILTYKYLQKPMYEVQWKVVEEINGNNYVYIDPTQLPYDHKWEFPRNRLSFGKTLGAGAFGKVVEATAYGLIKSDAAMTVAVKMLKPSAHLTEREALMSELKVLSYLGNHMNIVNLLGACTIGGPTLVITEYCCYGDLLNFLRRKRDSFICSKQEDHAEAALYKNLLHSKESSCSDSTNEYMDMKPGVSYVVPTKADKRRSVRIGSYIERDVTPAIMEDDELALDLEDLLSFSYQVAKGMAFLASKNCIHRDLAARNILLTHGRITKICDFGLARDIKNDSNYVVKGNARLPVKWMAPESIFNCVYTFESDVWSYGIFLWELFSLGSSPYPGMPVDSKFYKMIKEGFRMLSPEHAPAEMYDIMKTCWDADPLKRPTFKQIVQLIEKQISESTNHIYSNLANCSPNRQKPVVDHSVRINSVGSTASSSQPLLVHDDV
Method: as §1, §2, §3, §4, §5, §6, §7, §8, §9, §10, §11

MET = biological target: T4, MET (Homo sapiens, UniProt P08581); experiment: Kinase activity, Mobility Shift Assay; type: biochemical
T4 construct: purchased Carna 08-151
T4 sequence (P08581 25-1390): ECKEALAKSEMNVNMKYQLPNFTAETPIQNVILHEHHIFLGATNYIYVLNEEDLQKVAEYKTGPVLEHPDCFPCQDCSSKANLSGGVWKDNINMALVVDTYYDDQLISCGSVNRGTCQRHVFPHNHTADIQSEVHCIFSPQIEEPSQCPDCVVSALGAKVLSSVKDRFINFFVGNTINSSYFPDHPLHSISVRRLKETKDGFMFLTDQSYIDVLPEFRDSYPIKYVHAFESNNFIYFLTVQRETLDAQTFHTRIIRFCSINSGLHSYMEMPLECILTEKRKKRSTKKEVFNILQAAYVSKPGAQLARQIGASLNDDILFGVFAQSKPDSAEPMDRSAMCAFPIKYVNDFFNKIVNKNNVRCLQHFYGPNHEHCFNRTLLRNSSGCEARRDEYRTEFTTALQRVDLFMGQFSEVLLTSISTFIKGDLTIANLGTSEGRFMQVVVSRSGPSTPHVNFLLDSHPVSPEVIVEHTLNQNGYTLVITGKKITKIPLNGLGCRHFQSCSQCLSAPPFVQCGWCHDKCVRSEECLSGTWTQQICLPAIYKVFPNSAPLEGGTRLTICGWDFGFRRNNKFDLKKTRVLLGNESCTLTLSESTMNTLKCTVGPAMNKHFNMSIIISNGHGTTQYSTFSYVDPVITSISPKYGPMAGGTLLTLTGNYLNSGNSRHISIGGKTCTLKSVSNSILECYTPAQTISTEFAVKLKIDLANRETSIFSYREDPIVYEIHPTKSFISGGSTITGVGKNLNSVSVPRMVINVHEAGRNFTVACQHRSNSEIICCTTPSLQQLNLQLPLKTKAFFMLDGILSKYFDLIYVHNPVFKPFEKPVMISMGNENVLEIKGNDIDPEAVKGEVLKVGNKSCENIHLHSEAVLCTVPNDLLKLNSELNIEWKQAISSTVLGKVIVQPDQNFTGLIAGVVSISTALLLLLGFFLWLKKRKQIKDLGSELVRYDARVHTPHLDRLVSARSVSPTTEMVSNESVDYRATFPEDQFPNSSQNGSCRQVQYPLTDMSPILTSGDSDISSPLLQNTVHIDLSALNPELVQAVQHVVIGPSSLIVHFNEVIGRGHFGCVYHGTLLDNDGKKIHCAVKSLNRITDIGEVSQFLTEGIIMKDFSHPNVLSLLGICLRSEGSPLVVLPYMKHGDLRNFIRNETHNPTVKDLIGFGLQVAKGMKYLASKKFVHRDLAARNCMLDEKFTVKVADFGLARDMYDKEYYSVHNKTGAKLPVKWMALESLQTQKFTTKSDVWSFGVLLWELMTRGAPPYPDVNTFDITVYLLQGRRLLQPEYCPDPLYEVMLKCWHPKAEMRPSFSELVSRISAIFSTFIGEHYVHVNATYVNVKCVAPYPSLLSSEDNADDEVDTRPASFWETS
Method: as §1, §2, §3, §4, §5, §6, §7, §8, §9, §10, §11

PDGFRa = biological target: T5, PDGFRa (Homo sapiens, UniProt P16234); experiment: Kinase activity, Mobility Shift Assay; type: biochemical
T5 construct: purchased BPS 40260
T5 sequence (P16234 24-1089): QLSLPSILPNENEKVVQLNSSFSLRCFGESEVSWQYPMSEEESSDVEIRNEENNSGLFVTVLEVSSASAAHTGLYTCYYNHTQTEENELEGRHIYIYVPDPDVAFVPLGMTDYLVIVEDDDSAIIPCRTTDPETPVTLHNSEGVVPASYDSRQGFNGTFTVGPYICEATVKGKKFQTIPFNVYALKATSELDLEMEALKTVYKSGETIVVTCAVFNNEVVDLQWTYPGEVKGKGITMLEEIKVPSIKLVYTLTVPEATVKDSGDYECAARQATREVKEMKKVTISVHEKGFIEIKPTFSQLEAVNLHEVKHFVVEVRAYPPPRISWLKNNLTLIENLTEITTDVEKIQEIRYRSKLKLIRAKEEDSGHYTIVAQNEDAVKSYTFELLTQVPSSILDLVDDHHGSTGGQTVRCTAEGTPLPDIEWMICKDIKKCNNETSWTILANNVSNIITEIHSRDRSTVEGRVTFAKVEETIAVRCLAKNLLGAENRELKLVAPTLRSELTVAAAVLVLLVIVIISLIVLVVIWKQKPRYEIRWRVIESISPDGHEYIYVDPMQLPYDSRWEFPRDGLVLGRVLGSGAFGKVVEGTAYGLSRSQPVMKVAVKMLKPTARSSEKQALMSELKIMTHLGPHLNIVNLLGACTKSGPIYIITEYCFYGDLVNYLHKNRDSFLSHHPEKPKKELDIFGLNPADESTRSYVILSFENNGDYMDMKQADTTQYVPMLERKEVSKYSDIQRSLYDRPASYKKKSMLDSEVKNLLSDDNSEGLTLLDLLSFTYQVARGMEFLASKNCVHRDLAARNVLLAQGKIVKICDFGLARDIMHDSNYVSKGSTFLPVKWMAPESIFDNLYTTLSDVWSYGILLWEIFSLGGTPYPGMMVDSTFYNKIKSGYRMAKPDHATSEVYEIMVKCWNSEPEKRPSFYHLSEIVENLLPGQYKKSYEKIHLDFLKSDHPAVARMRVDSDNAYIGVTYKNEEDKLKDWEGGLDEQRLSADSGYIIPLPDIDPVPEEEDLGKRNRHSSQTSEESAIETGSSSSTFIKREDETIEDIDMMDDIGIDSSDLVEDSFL
Method: as §1, §2, §3, §4, §5, §6, §7, §8, §9, §10, §11

RET = biological target: T6, RET (Homo sapiens, UniProt P07949); experiment: Kinase activity, Mobility Shift Assay; type: biochemical
T6 construct: purchased Carna 08-159
Method: as §1, §2, §3, §4, §5, §6, §7, §8, §9, §10, §11

TRK-A = biological target: T7, TRK-A (Homo sapiens, UniProt P04629); experiment: Kinase activity, Mobility Shift Assay; type: biochemical
T7 construct: purchased Carna 08-186
Method: as §1, §2, §3, §4, §5, §6, §7, §8, §9, §10, §11

TRK-B = biological target: T8, TRK-B (Homo sapiens, UniProt Q16620); experiment: Kinase activity, Mobility Shift Assay; type: biochemical
T8 construct: purchased Carna 08-187
Method: as §1, §2, §3, §4, §5, §6, §7, §8, §9, §10, §11

[3] = 25° C./60% RH, simulating factory packaging, 3 months
[4] = 25° C./60% RH, simulating factory packaging, 6 months

## O=C(Nc1ccc(F)cc1)C1(C(=O)Nc2ccc(Oc3ccnc4cc(OCCCN5CCOCC5)c5c(c34)OCCO5)c(F)c2)CC1 [Example 2, N-(3-fluoro-4-((5-(3-morpholinopropoxy)-2,3-dihydro-[1,4]dioxano[2,3-f]quinolin-10-yl)oxy)phenyl)-N-(4-fluorophenyl)cyclopropane-1,1-dicarboxamide]
[1]
  Solubility (equilibrium): 5100 µg/mL
[2]; [3]
  Appearance: Off-white
  Content: 100.0%
  Crystal form: No
  Moisture: 0.31%
  Total impurities: 0.38%
[2]; [4]
  Appearance: Off-white
  Content: 100.5%
  Crystal form: No
  Moisture: 0.59%
  Total impurities: 0.36%
[2]; Day 0
  Appearance: Off-white
  Content: 100.2%
  Crystal form: No
  Moisture: 0.53%
  Total impurities: 0.37%
AXL
  inhibition of the activity of AXL (in words): effectively inhibit
KDR(VEGFR2)
  inhibition of the activity of VEGFR-2 (in words): effectively inhibit
KIT
  inhibition of the activity of c-KIT (in words): effectively inhibit
MET
  inhibition of the activity of c-MET (in words): effectively inhibit
PDGFRa
  inhibition of the activity of PDGFRa (in words): effectively inhibit
RET
  inhibition of the activity of RET (in words): effectively inhibit
TRK-A
  inhibition of the activity of TRK-A (in words): effectively inhibit
TRK-B
  inhibition of the activity of TRK-B (in words): effectively inhibit
